Here are results for 1 molecule from paper PMC4701221, “Novel Promising Estrogenic Receptor Modulators: Cytotoxic and Estrogenic Activity of Benzanilides and Dithiobenzanilides” (PLoS ONE, 2016).

The subject of one data set is HEK293 cells. The data set is described as follows: MTT cell viability, non-transfected (mock) HEK293 cells. Type of data set: cell-based, human. The conditions noted are these: 0–100 μM, 72 h, Fig 6B. The method, then: (§1) Compounds were dissolved in DMSO to the final concentration of 100 μM. A549, CCD39Lu, MCF-7, MDA-MB-231 and MCF-12A cells were seeded in 96 wells plates at density 2x10^4 cells/well and incubated overnight as described above. Subsequently, cells were treated with tested compounds at concentrations: 100 μM; 50 μM; 25μM; 12.5μM; 6 μM; 3 μM; 1.5 μM. […] Cells were incubated 72 h at 37°C in a humidified atmosphere containing 5% CO2 in the cell culture media appropriate for each cell line. Then, the medium was aspirated and 170 μl MTT solution (5mg/ml) was added to each well. Plates were incubated for 2 hours at 37°C, and then plates were centrifuged at 1200 rpm for 3 minutes. […] Absorbance at 570 nm (with reference wavelenght 650 nm) was measured using a plate reader (Biotek Instruments, Elx-800). Cell viability was calculated as a percentage relative to the control.
(§2) Fig 6 Estrogenic and cytotoxic activity of tested compounds in HEK293 cells transfected with wild type ERα receptor or plasmids bearing mutated versions of ERα. […] Results are expressed as mean ± SEM (n = 8). * p < 0.05 was considered statistically significant. […] 48 h after transfection, cells were incubated in the presence of increasing concentrations of compounds 18 for 72 h and cell viability was measured by MTT assay. […]

Another data set relates to MDA-MB-231 cells. Kind of data set: Sulphorodamine B assay, MDA-MB-231. The data set is classed as cell-based, human. The conditions noted are these: 72 h, Fig 2. How it is done:
(§3) In addition to the MTT assay, cell viability was measured by the Sulphorodamine B assay according to Vichai and Kirtikara. The MCF-7 and MDA-MB-23 cells were seeded and treated as for the MTT assay. After incubation the medium was removed and the cells were fixed with cold (4°C) trichloroacetic acid (final concentration 10%) for 1h. Than plates were washed 4 times with water and stained for 30 min, following by staining with sulforhodamine B (SRB) 0.4% in 1% acetic acid solution at room temperature for 20 min. After staining, the SRB solution was removed and the plates washed 5 times with 1% acetic acid dried. Bound SRB was solubilized with 200 μl 10 mM unbuffered Tris-base solution and plates were shaked for 10 min. The absorbance at 510 nm was measured using a plate reader (Biotek Instruments, Elx-800).

The test system of data set [1] is MCF-7 cells. The data set is described as follows: MTT assay, MCF-7. Type of data set: cell-based, human. How it is done:
(§4) The cell lines used in the cytotoxicity study, besides MCF-12A, were purchased from European Collection of Cell Culture (ECACC, Salisbury, UK): HEK293 (human embryonic kidney, ATTC no. CRL-1573), A549 (Human lung carcinoma, ECACC no. 86012804), CCD39Lu (Human lung fibroblasts, ECACC no. 90110512), MCF-7 (Human breast adenocarcinoma, ECACC no. 86012803) and MDA-MB-231 (Human breast adenocarcinoma ECACC no. 92020424). Cell lines were cultured in DMEM medium without phenol red and supplemented with 10% (v/v) FBS, 1% penicillin-streptomycin and 1% L-glutamine. MCF-12A (ATTC no. […]) was purchased from American Type Culture Collection (ATCC Manassas, VA 20110 USA). MCF-12A cells were kept in 1:1 mixture of Dulbecco’s modified Eagle’s medium and Ham’s F12 medium, 20 ng/ml human epidermal growth factor, 100 ng/ml cholera toxin, 0.01 mg/ml bovine insulin, 500 ng/ml hydrocortisone and 5% horse serum. All cell lines were cultured at 37°C, in a humidified atmosphere containing 5% CO2.
(§5) Compounds were dissolved in DMSO to the final concentration of […]. A549, CCD39Lu, MCF-7, MDA-MB-231 and MCF-12A cells were seeded in 96 wells plates at density 2x10^4 cells/well and incubated overnight as described above. Subsequently, cells were treated with tested compounds at concentrations: 100 μM; 50 μM; 25μM; 12.5μM; 6 μM; 3 μM; 1.5 μM. […] Cells were incubated 72 h at 37°C in a humidified atmosphere containing 5% CO2 in the cell culture media appropriate for each cell line. Then, the medium was aspirated and 170 μl MTT solution (5mg/ml) was added to each well. Plates were incubated for 2 hours at 37°C, and then plates were centrifuged at 1200 rpm for 3 minutes. The formazan crystals were dissolved in 200 μl DMSO and plates were further agitated on a plate shaker at 300–500 rpm for 10 minutes. Absorbance at 570 nm (with reference wavelenght 650 nm) was measured using a plate reader (Biotek Instruments, Elx-800). Cell viability was calculated as a percentage relative to the control.
(In general: Tetrazolium dyes change colour on reduction, which living cells bring about.)

A short description of the next data set: MTT assay, CCD39Lu. The data set is classed as cell-based. The settings on record: human, CCD39Lu cells (non-tumorigenic lung fibroblasts), read-out: Cytotoxic activity IC50, CCD39Lu. How it is done:
as §4, §5

The next data set is described as follows: MTT assay, MCF-12A. Type of data set: cell-based. The conditions noted are these: human, MCF-12A cells (non-tumorigenic breast epithelial), read-out: Cytotoxic activity IC50, MCF-12A. How it is done:
as §4, §5

Data set [2] relates to ERα W383S transfected HEK293 cells. Kind of data set: MTT cell viability, ERα W383S transfected HEK293 cells. The data set is classed as cell-based, human. The conditions noted are these: 0–100 μM, 72 h, compared to wild type ERα, Fig 6B. The method, then:
as §1, §2

Data set [3] deals with MCF-7 cells. The data set is described as follows: Sulphorodamine B assay, MCF-7. The data set is classed as cell-based, human. The conditions noted are these: 72 h, Fig 2. How it is done:
as §3

Data set [4] has as its system ERα transfected HEK293 cells. The data set is described as follows: MTT cell viability, ERα transfected HEK293 cells. The data set is classed as cell-based, human. The conditions noted are these: 0–100 μM, 72 h, Fig 6B. How it is done:
as §1, §2

“Also recorded” adds a separate entry of the source.

In general, IC50 refers to the concentration that gives 50% inhibition. In the case of `Fc1ccc(NC(=S)c2ccc(NC(=S)c3ccc(F)cc3)cc2)cc1` [Compound 18], the “Cell viability, non-transfected HEK293” value with HEK293 cells is “moderate cell toxicity”. Further, in the data set with MDA-MB-231 cells, the “Effect in SRB assay, MDA-MB-231” value was “non-significant effects”. Moreover, in the data set on MCF-7 cells [1] (72 h), the “Activity in MTT assay (in words), MCF-7” value is “significant activity; also recorded: strong effect”. Besides, the IC50 with MCF-7 cells [1] (Homo sapiens, MCF7, 72 h, estrogen dependent breast adenocarcinoma, read-out: Cytotoxic activity IC50, MCF-7) came to 5.07 µM. The IC50 at 72 h in the data set “MTT assay, CCD39Lu” was > 100 µM; in the data set “MTT assay, MCF-12A”, 91.5 µM. The “Cell viability, ERα W383S transfected HEK293” value in data set [2] is “decrease was significantly smaller”. For the same molecule, the “Effect in SRB assay, MCF-7” value with MCF-7 cells [3] is given as “strong effect”. Moreover, in data set [4], the “Cell viability, ERα transfected HEK293” value is “significantly decreased cell viability”.
